# Patent US20120258974A1, “USE OF A2B ADENOSINE RECEPTOR ANTAGONISTS FOR TREATING HEART FAILURE AND ARRHYTHMIA IN POST-MYOCARDIAL INFARCTION PATIENTS” (GILEAD SCIENCES, INC., priority 2011, published 2012)
# “Also recorded” adds a separate entry of the source.
# Legend:
# [1] = test system: rats with MI (25 minutes coronary occlusion followed by reperfusion); assay: Histology of fibrosis in the infarct border zone, rat post-MI model (Example 6); format: in vivo; details: 5 week post-MI; Sirius red; vs vehicle control
# Protocol: (§1) The effects of Compound A in a rat model of post-MI remodeling and VT were determined. MI was caused by 25 minutes occlusion at the left anterior descending coronary ligation followed by reperfusion. One week later, rats were administered either vehicle or Compound A (100 mg/kg) once daily by oral gavage. Serial echocardiograms (ECHOs) to measure LV ejection fraction (LVEF), stroke volume and LV end systolic volume (LVESV) were obtained at baseline, 1 week and 5 week post-MI. Electrophysiological studies, optical mapping, histology and biomarker analysis were conducted at 5 week post-MI.
# Abnormal conduction in the IBZ is due to tissue remodeling. Excessive fibrosis in the IBZ is an important substrate for VT vulnerability.
# [2] = test system: primary human cardiac fibroblasts (HCF); assay: NECA-induced release of IL-6, collagen, ST-2, PAPPA and expression of fibrotic markers in human cardiac fibroblasts (Example 2); format: cell-based; details: antagonist with NECA
# Protocol: Real-time RT-PCR was performed as published using Stratagene PCR equipment (La Jolla, Calif.). Zhong H., et al., “A2B adenosine receptors increase cytokine release by bronchial smooth muscle cells,” American Journal of Respiratory Cell and Molecular Biology, 30(1): 118-125 (2004).
# Expression of AdoR, α-smooth muscle actin and α-1 pro-collagen was determined using real-time RT-PCR. The concentration of IL-6, soluble ST-2 and PAPPA (Pregnancy-associated plasma protein A) in the cell supernatants were measured using ELISA, and the concentration of soluble collagen were determined using Sircol™ collagen assay.
# [3] = test system: acute myocardial infarction in the mouse (male ICR mice, coronary artery ligation); assay: Cardiac remodeling after coronary artery ligation in ICR mice (Example 3); format: in vivo
# Protocol: Male ICR mice underwent coronary artery ligation or sham surgery (N=8-10 per group). A selective A2B antagonist, Compound A 4 mg/kg in a formulated dosing suspension, every 12 hours i.p., was given starting immediately after the surgery and continued for 14 days. Transthoracic echocardiography was performed prior to surgery and then 7, 14 and 28 days later. A subgroup of mice was sacrificed 72 hours after surgery and the activity of caspase-1, a key proinflammatory mediator, was measured in the cardiac tissue.
# [4] = test system: rats with MI (25 minutes coronary occlusion followed by reperfusion); assay: Plasma biomarkers at 5 week post-MI, rat post-MI model (Example 6); format: in vivo
# Protocol: as §1
# [5] = test system: human cardiac myocytes (HCM); assay: NECA-induced IL-6 release from human cardiac myocytes (Example 7); format: cell-based; details: NECA in combination with antagonist
# Protocol: This example uses human cardiac myocytes to test two other A2B adenosine receptor antagonists on their effect on NECA-induced IL-6 release.
# Human cardiac myocytes (HCM) were treated with NECA alone, or in combination with Compound A, Compound B (N-[5-(1-cyclopropyl-2,6-dioxo-3-propyl-2,3,6,7-tetrahydro-1H-purin-8-yl)-pyridin-2-yl]-N-ethyl-nicotinamide, also known as ATL-801) or Compound C (2-(4-benzyloxy-phenyl)-N-[5-(2,6-dioxo-1,3-dipropyl-2,3,6,7-tetrahydro-1H-purin-8-yl)-1-methyl-1H-pyrazol-3-yl]-acetamide).
# caspase-1 = assay: Caspase-1 activity in heart tissue 72 hours after surgery (Example 4); format: in vivo, mouse; details: 4 mg/kg i.p. twice daily from coronary ligation
# Protocol: Adult out-bred male CD1 mice (8-12 weeks of age) were supplied by Harlan Sprague Dawley (Indianapolis, Ind.). The experiments were conducted under the guidelines of laboratory animals for biomedical research published by National Institutes of Health (No. 85-23, revised 1996). The study protocol was approved by the Virginia Commonwealth University Institutional Animal Care and Use Committee. Experimental AMI was induced by permanent coronary artery ligation in order to induce a large non-reperfused infarct involving approximately 30% of the left ventricle and leading to an ischemic dilated cardiomyopathy (Mezzaroma et al. Proc Natl Acad Sci 2011—in press and Abbate et al. Circulation 2008; 117:2670-83). […]
# An additional subset of mice was sacrificed 72 hours after surgery (N=4-6 per treatment group). […] The tissue activity of caspase-1 was determined by cleavage of a fluorogenic substrate (CaspACE, Promega, Madison, Wis.) (Abbate et al. Circulation 2008; 117:2670-83). […] Fluorescence was measured after 60 minutes and was expressed as arbitrary fluorescence units produced by one microgram of sample per minute (fluorescence/μg/min) and calculated as fold change compared to the caspase-1 activity in homogenates of the hearts of sham-operated mice.
# [6] = echocardiography, 4 mg/kg i.p. every 12 hours for 14 days, vs vehicle
smiles,measurement,setting,value
"CCCn1c(=O)c2[nH]c(-c3cnn(Cc4cccc(C(F)(F)F)c4)c3)nc2n(CC)c1=O [Compound A, 3-ethyl-1-propyl-8-(1-(3-(trifluoromethyl)benzyl)-1H-pyrazol-4-yl)-1H-purine-2,6(3H,7H)-dione]",fibrosis in the IBZ,[1],inhibited
same,effect of NECA on expression of α-1 pro-collagen,[2],completely abolished
same,effect of NECA on expression of α-smooth muscle actin,[2],completely abolished
same,effect of NECA on release of IL-6,[2],completely abolished
same,effect of NECA on release of PAPPA,[2],completely abolished
same,effect of NECA on release of ST-2,[2],completely abolished
same,effect of NECA on release of collagen,[2],completely abolished
same,mice that died during the 4 weeks post-surgery,"[3]; 4 mg/kg i.p. every 12 hours for 14 days, vehicle 42%",25%
same,caspase-1 activity in the cardiac tissue,"[3]; 72 hours after surgery, 4 mg/kg i.p. every 12 hours, vs vehicle",significantly reduced
same,LV ejection fraction,[3]; [6],increased
same,end-diastolic diameter,[3]; [6],significantly reduced
same,myocardial performance index,[3]; [6],significantly reduced
same,plasma IL-6,[4],significantly reduced
same,plasma PAI-1,[4],significantly reduced
same,increase of plasma BNP,[4]; P=0.16,trend
same,effect of NECA on HCM (IL-6 release),[5],completely abolished
same,caspase-1 activation / activity in the heart during AMI,caspase-1,prevented; also recorded: nearly complete reduction
